Data as given in patent US8207223B2, “Pharmaceutical composition for treatment of diseases associated with decrease in bone mass comprising EP4 agonist as active ingredient” (Ono Pharmaceutical Co., Ltd., priority 2001, dated 2012).

How the values were obtained:
[1] = test system: fibula bone fracture; test: Effect of accelerating cure of bone fracture (rat fibula fracture model; callus bone density and three-point bending strength); assay type: in vivo, male IGS rats; details: 50 ng/kg/min intravenously for 2 hours twice a day for 21 days
Experimental: (ix) Effect of Accelerating Cure of Bone Fracture
According to the methods of R. Sakai (Bone, 25, 191-196 (1999)), H. Kawaguchi (Endocrinology, 135, 774-781 (1994)) and T. Hoshino (J. Biomed Mater Res., 51, 229-306 (2000)), a bone fracture model was prepared with male IGS rats of 8 weeks of age. Hair of the left hind-limb of a rat was cut under anesthetization with pentobarbital Na, and Viccillin S 500 (500 mg potency) (Meiji Seika) was intramuscularly injected at a dose of 10 mg potency/100 μl distilled water/body. Then, the skin on the fibula (from the back of knee joint to tendo Achillis) was incised to ablate the muscular tissue and expose the fibula. […] The recovered fibulae were taken radiographs to assess development of the cure of fracture based on the presence of a fracture line and callus formation, and the density and strength of the bone around the fracture portion were measured. […]
The bone density of the callus region at the fracture position of the recovered fibula was measured referring to the reports of C. […] During photographing, a phantom for quantitative analysis of bone salt for mice (Kyoto Kagaku Co.) was set together in order to make an analytical curve for measurement of bone density. The image was read by a Bio-imaging Analyzer BAS-1800 (FUJIFILM)/Image Reader (FUJIFILM) and processed with an Image Gauge, ver.3.1.12 (FUJIFILM). […]

[2] = biological target: T1, murine EP4 (Mus musculus, UniProt P32240); test: Receptor-binding experiment (3H-PGE2 binding inhibition) using membranes of CHO cells expressing prostanoid receptor sub-types; details: binding to EP4 receptor, CHO cell membranes, read-out: Dissociation Constant Ki
T1 construct: expressed in transfected cells; host or cells: CHO cells (membrane fraction)
T1 sequence (P32240 whole entry): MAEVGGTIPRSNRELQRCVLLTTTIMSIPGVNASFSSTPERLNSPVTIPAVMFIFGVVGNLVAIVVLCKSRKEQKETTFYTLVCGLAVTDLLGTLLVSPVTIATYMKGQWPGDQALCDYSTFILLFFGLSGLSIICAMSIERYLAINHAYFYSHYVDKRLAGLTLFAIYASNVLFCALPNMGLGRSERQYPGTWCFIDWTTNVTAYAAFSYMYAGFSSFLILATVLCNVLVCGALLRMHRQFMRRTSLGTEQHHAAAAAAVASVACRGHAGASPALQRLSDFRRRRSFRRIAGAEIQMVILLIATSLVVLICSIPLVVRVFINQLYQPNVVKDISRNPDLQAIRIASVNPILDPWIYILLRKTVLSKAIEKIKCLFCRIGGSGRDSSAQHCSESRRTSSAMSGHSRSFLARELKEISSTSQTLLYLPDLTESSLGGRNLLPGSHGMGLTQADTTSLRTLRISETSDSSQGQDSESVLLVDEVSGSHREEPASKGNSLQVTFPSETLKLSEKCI
Experimental: (i) Experiment for receptor-binding using cells which express prostanoid receptor sub-types
According to the method of Sugimoto et al. (J. Biol. Chem., 267, 6463-6466 (1992)), CHO cells which expressed prostanoid receptor sub-types (murine EP1, EP2, EP3α, and EP4, respectively) were prepared and used as membrane authentic samples.
A reaction solution (200 μl) containing the prepared membrane fraction (0.5 mg/ml) and ^3H-PGE2 was incubated at room temperature for 1 hour. The reaction was terminated with ice cold buffer (3 ml), and the reaction mixture was filtered under suction through a glass filter (GF/B), on which the binding ^3H-PGE2 was trapped, and the binding radioactivity was measured by means of a liquid scintillator.
The Kd value was obtained from the Acatchard plots [Ann. N.Y. Acad. Sci., 51, 660 (1949)]. Non-specific binding was obtained as the binding in the presence of an excess amount (2.5 μM) of unlabelled PGE2. Measurement of the binding inhibition for ^3H-PGE2 with the compounds of the invention was performed by adding ^3H-PGE2 (2.5 nM) and a series of concentrations of the compound of the invention. In this reaction, the following buffer was used in all cases. • Buffer: 10 mM potassium phosphate (pH 6.9), 1 mM EDTA, 10 mM MgCl2, and 0.1M NaCl.
Dissociation constant Ki (μM) of each compound was calculated from the following equation. Ki=IC50/(1+([C]/Kd))

[3] = test system: collagen-induced arthritis; test: Arthritis induced by collagen in rats; assay type: in vivo, female DA/Slc rat; details: limbs scored at 27 days, full score 30, *p < 0.05
Experimental: (iv) Inhibitive Effect for Chronic Articular Rheumatism
(1) Arthritis Induced by Collagen in Rats
Experiment was performed according to the method of Osterman et al. (Inflamm. Res., 44, 258-263). An inducing agent (an emulsion prepared by adding an equal volume of physiological saline and 2 equivalent volume of incomplete Freund adjuvant to 0.3% solution of type II collagen of bovine origin) 0.1 ml each was applied intracutaneously to the 4 sites of the back of a female DA/Slc rat. After a lapse of 1 week, the same inducing agent was further applied intracutaneously to the tail root to induce arthritis. At 27 days the limbs were scored responding to the degree of redness and edema and assessed as 30 was regarded as full scores. The compound of the invention was dissolved in an equimolar amount of 0.02 mole/L sodium hydroxide solution, diluted with distilled water, and orally given 3 times a day from the next day of the first administration of inducer.

## COCc1cccc(C[C@H](O)/C=C/[C@H]2[C@H](O)CC(=O)[C@@H]2CCSCCCC(=O)OC)c1 [Compound (1), (11α,15α,13E)-9-Oxo-11,15-dihydroxy-16-(3-methoxymethylphenyl)-17,18,19,20-tetranor-5-thiaprost-13-enoic acid methyl ester]
[1]; callus region
  Bone Density: 42.8 ± 2.58 mg/cm^2
[1]; three-point bending test
  Fracture Strength: 30.4 ± 12.4% of intact

## O=C(O)CCCCCCN1C(=O)CC[C@@H]1/C=C/[C@@H](O)Cc1cccc(C#Cc2ccccc2)c1 [Example 2(pp), (15α,13E)-9-Oxo-15-hydroxy-16-(3-(2-phenylethynyl)phenyl)-17,18,19,20-tetranor-8-azaprost-13-enoic acid]
[2]
  Ki: 0.24 nM

## O=C(O)CCCSCCN1C(=O)CC[C@@H]1/C=C/[C@@H](O)Cc1cccc(Cl)c1 [Example 3 (b), (15α,13E)-9-Oxo-15-hydroxy-16-(3-chlorophenyl)-17,18,19,20-tetranor-5-thia-8-azaprost-13-enoic acid]
[3]; 300 μg/kg orally 3 times a day
  Arthritic Score (Means ± SE): 19.3 ± 1.4*

## Cc1ccc(C[C@H](O)/C=C/[C@H]2CCC(=O)N2CCSCCCC(=O)O)o1 [Example 3 (kk), (15α,13E)-9-Oxo-5-hydroxy-16-(5-methylfuran-2-yl)-17,18,19,20-tetranor-5-thia-8-azaprost-13-enoic acid]
[3]; 100 μg/kg orally 3 times a day
  Arthritic Score (Means ± SE): 11.9 ± 3.6*

## O=C(O)CCCSCCN1C(=O)CC[C@@H]1/C=C/[C@@H](O)Cc1ccc(F)cc1 [Example 3 (l), (15α,13E)-9-Oxo-15-hydroxy-16-(4-fluorophenyl)-17,18,19,20-tetranor-5-thia-8-azaprost-13-enoic acid]
[3]; 100 μg/kg orally 3 times a day
  Arthritic Score (Means ± SE): 16.3 ± 3.0*

## CCCc1cccc(C[C@H](O)/C=C/[C@H]2CCC(=O)N2CCSCCCC(=O)O)c1 [Example 3(e), (15α,13E)-9-Oxo-15-hydroxy-16-(3-propylphenyl)-17,18,19,20-tetranor-5-thia-8-azaprost-13-enoic acid]
[2]
  Ki: 0.71 nM

## O=C1CC[C@H](/C=C/[C@@H](O)Cc2ccc(F)cc2)N1CCSCCCCO [Example 4 (h), (15α,13E)-9-Oxo-15-hydroxy-16-(4-fluorophenyl)-17,18,19,20-tetranor-5-thia-8-azaprost-13-en-1-ol]
[3]; 300 μg/kg orally 3 times a day
  Arthritic Score (Means ± SE): 9.8 ± 1.9*
